Test results from PMC10046961, “High-Throughput Screening Assay for Detecting Drug-Induced Changes in Synchronized Neuronal Oscillations and Potential Seizure Risk Based on Ca^2+ Fluorescence Measurements in Human Induced Pluripotent Stem Cell (hiPSC)-Derived Neuronal 2D and 3D Cultures” (Cells, 2023).
Read-outs that look alike come from different tables or passages of the source. Marks after values point to notes of the source that are not given here.

Key:
[1] = ref PharmaPendium, cited from earlier work
[2] = test system: hiPSC-derived neurons co-cultured with human primary astrocytes in 2D; test: Ca2+ transient oscillation assay (FDSS), 2D co-culture; assay type: cell-based; conditions: for activation at 11.11 µM / activation at 33.33 µM / activation at 100 µM / activation at 300 µM: Homo sapiens, 1 h, 60 min
Procedure, shortened: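 hiPSC-derived excitatory neurons (CW50065, Quick-Neuron EX-SeV) co-cultured with human primary astrocytes at 4:1 (10,000:2500 cells per well). Cal-520-loaded cells in HBSS with 2 mM CaCl2 and 10 mM HEPES were pretreated with 0.04% DMSO.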

[3] = test system: hiPSC-derived neurons co-cultured with human primary astrocytes in 3D; test: Ca2+ transient oscillation assay (FDSS), 3D spheroids; assay type: cell-based; conditions: 60 min
Procedure, shortened: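 Fura-2 fluorescence was read twice for 20 min each: a baseline 10 min after 0.04% DMSO, and again 60 min after compound addition at nominal final concentration. The 3D co-cultures (1:1 hiPSC neurons from a donor and human astrocytes, 8000 each) matured 5 weeks in BrainPhys medium after a 1-week differentiation.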

[4] = read-out: Area under the curve - 2D Mean
[5] = read-out: Peak amplitude - 2D Mean
[6] = read-out: Peak-to-peak interval - 2D Mean

SMILES: CC(=O)OCC[N+](C)(C)C [Acetylcholine]
- Free Cmax ([1]; Table 1, peak plasma concentration in men, free therapeutic Cmax): 1000 to 10000 nM
- Free Cmax ([1]; Table 2, highest plasma concentration in humans after the therapeutic dose): 1000 to 10000 nM
- effect on peak number / Ca2+ neuronal oscillations, in words ([2]; 2D format): significantly reduced peak number
- activation at 11.11 µM [2, 4]: 38.3%
- activation at 11.11 µM ([2]; read-out: Peak Number—2D Mean): 2.4%
- activation at 11.11 µM [2, 5]: 11.4%
- activation at 11.11 µM ([2]; read-out: Peak width - 2D Mean): 26.2%
- activation at 11.11 µM [2, 6]: 28%
- activation at 33.33 µM [2, 4]: 19.9%
- activation at 33.33 µM ([2]; read-out: Peak Number—2D Mean): -31.5%
- activation at 33.33 µM [2, 5]: 2.3%
- activation at 33.33 µM ([2]; read-out: Peak width - 2D Mean): 16.2%
- activation at 33.33 µM [2, 6]: -25.8%
- activation at 100 µM [2, 4]: -1.3%
- activation at 100 µM ([2]; read-out: Peak Number—2D Mean): -47.2%
- activation at 100 µM [2, 5]: -17%
- activation at 100 µM ([2]; read-out: Peak width - 2D Mean): -3.8%
- activation at 100 µM [2, 6]: 11.3%
- activation at 300 µM [2, 4]: -6.1%
- activation at 300 µM ([2]; read-out: Peak Number—2D Mean): -63.5%
- activation at 300 µM [2, 5]: -12.8%
- activation at 300 µM ([2]; read-out: Peak width - 2D Mean): 2.6%
- activation at 300 µM [2, 6]: 45.5%
- Area under the curve - 3D Mean ([3]; 11.11 µM): 109.9 % change from baseline
- Peak Number—3D Mean ([3]; 11.11 µM): −33.8 % change from baseline
- Peak amplitude - 3D Mean ([3]; 11.11 µM): 90.9 % change from baseline
- Peak width - 3D Mean ([3]; 11.11 µM): 4.2 % change from baseline
- Peak-to-peak interval - 3D Mean ([3]; 11.11 µM): 89.6 % change from baseline
- Area under the curve - 3D Mean ([3]; 33.33 µM): 110.9 % change from baseline
- Peak Number—3D Mean ([3]; 33.33 µM): −51.6 * % change from baseline
- Peak amplitude - 3D Mean ([3]; 33.33 µM): 105.2 % change from baseline
- Peak width - 3D Mean ([3]; 33.33 µM): 0.4 % change from baseline
- Peak-to-peak interval - 3D Mean ([3]; 33.33 µM): 38.9 % change from baseline
- Area under the curve - 3D Mean ([3]; 100 µM): 97.3 % change from baseline
- Peak Number—3D Mean ([3]; 100 µM): −34.9 % change from baseline
- Peak amplitude - 3D Mean ([3]; 100 µM): 88.6 % change from baseline
- Peak width - 3D Mean ([3]; 100 µM): 0.0 % change from baseline
- Peak-to-peak interval - 3D Mean ([3]; 100 µM): −5.5 % change from baseline
- Area under the curve - 3D Mean ([3]; 300 µM): 72.7 % change from baseline
- Peak Number—3D Mean ([3]; 300 µM): −68.3 ** % change from baseline
- Peak amplitude - 3D Mean ([3]; 300 µM): 56.5 % change from baseline
- Peak width - 3D Mean ([3]; 300 µM): −12.2 % change from baseline
- Peak-to-peak interval - 3D Mean ([3]; 300 µM): 75.9 % change from baseline
